Entries after “also recorded” stand apart in the source; their conditions may differ.
Legend:
[1] = tested on: cotton bollworms (H. armigera larvae); assay: Injection into cotton bollworm larvae; assay type: in vivo, Helicoverpa armigera
Procedure: We examined the effect of rAe1a on cotton bollworms (i.e., larvae of H. armigera) supplied by AgBiTech (Glenvale, QLD, Australia). […] Larvae were kept on artificial diet (AgBiTech) in standard 6-well plates and their mass was measured 24, 48 and 72 h after the injection.

[2] = tested on: fruit flies (Drosophila melanogaster); assay: Insecticidal activity by injection into fruit flies (PD50, LD50); assay type: in vivo; details: D. melanogaster
Procedure: (§1) Figure 3 Insecticidal effects of Ae1a. (A) rAe1a was injected into blowflies (Lucilia cuprina) and paralytic effects were measured 0.5 and 1 h after injection. (B) rAe1a was injected into fruit flies (Drosophila melanogaster) and paralytic and lethal effects were measured at 3 h and 24 h post injection. (C) rAe1a and Hv1a were injected into the triatomine bug Rhodnius prolixus and lethality was measured 24 h after injection. PD50 and LD50 values were calculated as described previously.
The effect on rAe1a on fruit flies was determined using a previously described method. rAe1a was dissolved in 100 mM ammonium acetate buffer (pH 6.1) and injected into the lateral thoracic region of adult female D. melanogaster using a glass capillary connected with silicone tubing to a 10 ml plastic syringe. The injection volume per fruit fly was calibrated to be 50 nl for each glass capillary. After injection, fruit flies were housed in 68-ml plastic tubes (containing a cotton piece soaked in 0.5% sucrose solution) in groups of 10 (all receiving the same treatment) and monitored for signs of paralysis or lethality at 3 and 24 h post-injection.

[3] = tested on: diamondback moth Plutella xylostella; assay: Injection into larvae of the diamondback moth (data not shown); assay type: in vivo; details: injected into larvae of Plutella xylostella
[4] = tested on: NaV channel currents in dorsal unpaired median (DUM) neurons (PaNaV1); assay: Whole-cell patch-clamp of NaV channel currents in DUM neurons; assay type: cell-based, Periplaneta americana; details: P. americana DUM neurons
Procedure: Figure 5 Effect of rAe1a on NaV channel currents in P. americana DUM neurons. (A) Representative traces showing the effect of 1 μM rAe1a on INa mediated by PaNaV1 in P. americana DUM neurons. Currents were evoked by depolarizations to −10 mV, from a holding potential of −90 mV (panel B), with black and red traces corresponding to the current before, and 5 min after, toxin application, respectively. (C) Time course of rAe1a actions on PaNaV1. Peak INa were recorded at a rate of 0.1 Hz before (black circles), and for 5 min during, application of 1 μM rAe1a (red circles) and normalized against maximal peak INa (−1/Imax; n = 3). (D) GNa-V relationships in P. americana DUM neurons. A voltage protocol with depolarisation steps from −90 mV to +40 mV in 10 mV increments (lower panel B) was used to generate families of INa. The normalized conductance-voltage (GNa-V) relationship (G/Gmax) is shown before (black circles) and after (red circles) a 5 min perfusion with 1 μM rAe1a (n = 4). […]
Ionic currents were recorded from DUM neurons in voltage-clamp mode using the whole-cell patch-clamp technique employing version 10.2 of the pCLAMP data acquisition system (Molecular Devices, Sunnyvale, CA, USA). […] Liquid junction potentials were calculated using JPCALC, and all data were compensated for these values. […] Peak current amplitude was analysed offline using AxoGraph X v1.5.3 (Molecular Devices). […]

[5] = tested on: sheep blowflies (Lucilia cuprina); assay: Insecticidal activity by injection into sheep blowflies (PD50); assay type: in vivo
Procedure: as §1
rAe1a was dissolved in insect saline[45] and injected into the ventro-lateral thoracic region of adult sheep blowflies (L. cuprina; mass 26.8–29.7 mg) as described previously. A maximum of 2 μl was injected per fly using a 1.0 ml Terumo Insulin syringe with 29-gauge needle fitted to an Arnold hand micro-applicator (Burkard Manufacturing Co. Ltd., Rickmansworth, England). After injection, flies were individually housed in 2-ml tubes and paralytic effects determined after 0.5, 1 and 24 h. A total of three assays were performed, and for each assay nine doses of rAe1a (n = 10 flies per dose) and the appropriate control (insect saline; n = 20 flies each) were used. PD50 values were calculated as described.

[6] = tested on: fruit fly Drosophila melanogaster; assay: Screen of spider venoms / native peptide by injection into fruit flies; assay type: in vivo; details: injected into D. melanogaster
Procedure: We used the fruit fly Drosophila melanogaster to rapidly screen spider venoms for insecticidal activity. […] Microinjection of venoms or toxins into D. melanogaster has the advantage that it requires only small volumes (50 nl per fly), which enables the study of scarce venoms from small venomous animals. Given the worldwide availability of Drosophila and the general sensitivity of flies towards spider toxins, this assay provides a convenient method for determining the insecticidal potency of venom compounds. However, as discussed below, it should not be used in isolation but rather as part of a taxonomically diverse screening protocol that aims to uncover potentially complex phyletic specificities.

hNaV1.5 = assay: Two-electrode voltage-clamp of hNaV1.5 in Xenopus oocytes; assay type: cell-based; details: hNaV1.5 + human β1 in Xenopus oocytes, 200 nM, n = 3–5
Procedure: (§2) Figure 4 Effect of rAe1a on BgNav1 and hNaV1.5. Left panels: Representative traces showing the effect of rAe1a (200 nM) on sodium currents mediated by (A) BgNaV1, (C) mutant BgNaV1 (H805Y/D812E), and (E) hNaV1.5 heterologously expressed in Xenopus oocytes. Currents were evoked by a depolarization to −15 mV, with black and red traces corresponding to the current before and after toxin application, respectively. Right panels: Effect of 200 nM rAe1a on normalized conductance-voltage (G–V) relationships (G/Gmax) and steady-state inactivation (SSI) relationships (I/Imax) for (B) BgNaV1, (D) mutant BgNaV1, and (F) hNaV1.5. […]
(§3) cRNA encoding BgNaV1 from Blattella germanica[50] and hNaV1.5 (Origene, Rockville, MD, USA) was synthesized using T7 polymerase (mMessage mMachine kit, Life Technologies, USA) after linearizing the fully-sequenced DNA. […] Oocytes were incubated at 17 °C in 96 mM NaCl, 2 mM KCl, 5 mM HEPES, 1 mM MgCl2 and 1.8 mM CaCl2, 50 μg/ml gentamycin, pH 7.6 with NaOH, and currents were measured 1–2 days after cRNA injection using the two-electrode voltage-clamp recording technique (OC-725C, Warner Instruments, Hamden, CT, USA) with a 150-μl recording chamber. […] After addition of rAe1a to the recording chamber, equilibration between toxin and channel was monitored using weak depolarizations elicited at 5-s intervals. […]

[7] = tested on: mutant BgNaV1 (H805Y/D812E); assay: Two-electrode voltage-clamp of mutant BgNaV1 (H805Y/D812E) in Xenopus oocytes; assay type: cell-based, Blattella germanica; details: BgNaV1 H805Y/D812E versus wild-type BgNaV1
Procedure: as §2, §3

[8] = tested on: triatomine bug Rhodnius prolixus; assay: Toxicity by injection into triatomine bugs; assay type: in vivo; details: for activity against R. prolixus (in words): injection
Procedure: as §1
Toxicity against R. prolixus was measured using the method described by Luna et al.[49] with some modifications. Microinjection needles, made by pulling borosilicate glass capillaries with a needle puller (Narishige, PC-10, Japan), were fitted onto a Nanoject II auto injector (Drummond Scientific, Broomall, PA, USA). Ae1a, Hv1a, or PBS (n = 7–10 per dose, 138 nl volume) were injected into the thorax of second instar R. prolixus nymphs (average mass 1.4 mg) via articulation of prothoracic coxa. Synthetic Hv1a was kindly supplied by Vestaron Corporation (Kalamazoo, MI, USA). Three separate sets of experiments were performed for each compound. After injection, bugs were transferred to plastic cages and stored at 26 °C with 50% relative humidity. All bugs were checked at 24 h post-injection for signs of paralysis or lethality.

BgNaV1 = assay: Two-electrode voltage-clamp of BgNaV1 in Xenopus oocytes; assay type: cell-based, Blattella germanica
Procedure: as §2, §3

[9] = tested on: BgNaV1 over PaNaV1 channels; details: cited from earlier work
Source text: The selectivity of Ae1a for BgNaV1 over PaNaV1 channels is reminiscent of the selectivity reported for the insecticidal spider-venom peptide μ-DGTX-Dc1a (Dc1a) isolated from the American desert spider Diguetia canities. In order to explore the molecular basis of this species selectivity we examined the ability of Ae1a to inhibit the activity of a BgNaV1 channel containing two mutations that were previously reported to determine sensitivity to Dc1a[18].

[10] = tested on: German cockroaches (Blattella germanica); details: cited from earlier work
Source text: (§4) An ideal bioinsecticide would be specific for the targeted insect pest, without harming beneficial insects. Although most spiders are generalist predators that hunt many types of insect prey, some spider-venom peptides have been isolated that are specific to certain insect orders or even to certain species within an insect order. […] Another ex ...

[11] = tested on: American cockroaches (Periplaneta americana); details: at much higher doses; cited from earlier work
Source text: as §4

[12] = tested on: insect voltage-gated calcium channels; details: cited from earlier work
honeybees = details: cited from earlier work
Source text: as §4

[13] = tested on: wide range of insect pest species; details: cited from earlier work
Source text: as §4

μ-theraphotoxin-Ae1a
adverse effects / resistance (in words) [1]: no adverse effects; also recorded: resistant
paralysis / lethality (in words) [2]: lethal; also recorded: irreversible paralysis leading to death; also recorded: highly sensitive
lethality (in words) [3]: lethal
effect on NaV channel currents in DUM neurons (in words) [4]: failed to significantly affect sodium currents; also recorded: no significant affect
paralysis (in words) ([5]; L. cuprina): rapid but reversible paralysis; also recorded: reverses within 24 h
PD50 (summary value) ([5]; sheep blowflies, approximate value in discussion): ~ 950 pmol/g
lethality / toxicity (in words) [6]: lethal
effect on hNaV1.5 currents and gating (in words) (hNaV1.5): completely inactive
sensitivity of mutant channel to toxin (in words) [7]: much less sensitive
activity against R. prolixus (in words) [8]: inactive
inhibition of BgNaV1 currents (in words) (BgNaV1): potently inhibits

μ-DGTX-Dc1a
selectivity for BgNaV1 over PaNaV1 (in words) [9]: selectivity
lethality (in words) [10]: lethal
adverse effects (in words) [11]: does not induce adverse effects

ω-hexatoxin-Hv1a
LD50 ([8]; R. prolixus second instar nymphs, injection into thorax, 24 h after injection, n = 7–10 per dose, three experiments): 147 ± 37 pmol/g
activity against R. prolixus (in words) [8]: highly susceptible
calcium channel inhibition (in words) [12]: selective inhibitor
activity against honeybees (in words) (honeybees): inactive
lethality (in words) [13]: lethal

Reference: paper PMC4935840, “Molecular basis of the remarkable species selectivity of an insecticidal sodium channel toxin from the African spider Augacephalus ezendami” (Scientific Reports, 2016)
